In US20100279413A1, “APPLICATIONS OF UBIQUINONES AND UBIQUINOLS” (ZYMES, LLC, priority 2008, published 2010):

Tests used:
[1] = system: cultured fetal rat DRGs; test: CoQ10 / HQO dose response: neurite growth and survival of cultured fetal rat DRGs; format: cell-based; conditions: for mean neurite length: day 16, controls 4.84 mm, p<0.0001
Method: In fact, by day 11, the length of neurites around DRGs was longer if the DRGs were cultured with CoQ10 (concentrations ranged from 0.1-50 uM) compared with control DRGs, p<0.0001 for all. FIG. 1A, 1B, 1C.
The aim of the second experiment was to confirm that exposure to 50 uM CoQ10 is not toxic to cultured fetal rat DRGs and also to see if even higher concentrations may be used safely. Eight DRGs (2 plates of 4 DRGs each) were cultured under each of the following conditions: • Control • 50 uM CoQ10 • 75 uM CoQ10 • 100 uM CoQ10
This experiment was carried on for 22 days, which is about as long as DRGs can be sustained in this model, even under control conditions. The experiment was continued for this time period to confirm that CoQ10 remains non-toxic in this model over time.
Neurite lengths around each DRG were measured at four representative points (giving a total of 32 measures at each exposure concentration at each time point) on days 1, 2, 5, 8, 12, 16 and 22.
A third experiment measured growth of DRG's with varying doses of HQO™, 0.1, 10, 100 uM CoQ10. This experiment was done in DRG's isolated from a new rat, which accounts for the difference in neurite length compared to experiments 1 and 2. […] (FIG. 1E)

[2] = system: cultured fetal rat dorsal root ganglia (DRGs); test: In vitro model of ATN: NRTI (d4T/ddI) neurotoxicity in cultured fetal rat DRGs; format: cell-based
Method: Objective: To examine the safety and preventative efficacy of HQO™ using cultured fetal rat dorsal root ganglia (DRGs) as an in vitro model of ATN.
In a separate experiment, DRGs were exposed to a higher dose (50 μM) of d4T alone or with 10 or 100 nM HQO™.

## COC1=C(OC)C(=O)C(C/C=C(\C)CC/C=C(\C)CC/C=C(\C)CC/C=C(\C)CC/C=C(\C)CC/C=C(\C)CC/C=C(\C)CC/C=C(\C)CC/C=C(\C)CCC=C(C)C)=C(C)C1=O [CoQ10, coenzyme Q10]
[1]; day 11, 0.1-50 uM, p<0.0001 for all
  length of neurites around DRGs compared with control DRGs: longer
[1]; 75 uM (non-viable DRG excluded)
  mean neurite length: 6.20 mm
[1]; 100 uM
  mean neurite length: 6.07 mm
[1]; first dose finding experiment, concentrations up to 50 uM
  toxicity in cultured fetal rat DRGs: no evidence of toxicity
[1]; second experiment, 50, 75, 100 uM, up to 22 days
  toxicity in cultured fetal rat DRGs: no evidence of toxicity

## CC(=O)O[C@H](CC(=O)[O-])C[N+](C)(C)C [LAC, L-acetyl carnitine]
[2]; heading of Example 3, no data given
  NRTI (ddI)-induced neurotoxicity of fetal rat DRGs: Prevents

## Cc1cn([C@H]2C=C[C@@H](CO)O2)c(=O)[nH]c1=O [d4T, stavudine]
[2]; 50 μM d4T alone, by day 8
  toxicity in DRGs (NRTI alone): evident
